{"source": "PubChem BioAssay AID2060882", "about": "(Molecular Pharmacology Branch, DTP, NCI, 2025);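 note: spheroids exposed to compound for seven days before readout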;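 for viability, T/C: 100% = DMSO vehicle control wells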", "test_system": "898857-211-R-J1-PDC complex spheroids, growth % test/control", "experiment": "Anticancer human tumor 898857-211-R-J1-PDC patient-derived melanoma cell line growth inhibition [RAS]", "settings": "for IC50: curve of first compound; for viability, T/C: stronger effect = lower value", "excerpt": "RAS pathway inhibitors in Combinations in Complex Spheroids\nA high-throughput screen of multi-cell type tumor spheroids was designed to identify active combinations of RAS pathway inhibitors and targeted small molecules. Complex spheroids include a stromal component modeled by human endothelial cells (HUVEC) and fibroblasts modeled by human mesenchymal stem cells (MSCs). The concentration ranges selected for each drug and investigational agent were based upon clinically achievable concentrations if the clinical Cmax of the agent was known.\nCompounds. The drugs and investigational agents: abemaciclib (NSC768073), cobimetinib (NSC768068), divarasib (GDC6063, NSC841802), docetaxel (NSC628503), GDC-1971 (RLY-1971, NSC841576), gemcitabine (NSC613327), inavolisib (NSC800729), ipatasertib (NSC767898), KB-0742 (NSC834161), MRTX-1133 (NSC836407), osimertinib (NSC779217), RMC-4630 (NSC839698), RMC-6236 (NSC851965), RMC-6291 (NSC852671), Ro-3306 (NSC812927), sapanisertib (NSC764658), SN-38 (NSC673596), staurosporine (NSC755774), SY5609 (NSC837396), and tovorafenib (DAY101, NSC766906), were obtained from the National Cancer Institute (NCI) Developmental Therapeutics Program Chemical Repository. The FDA-approved anticancer drug set is available from the NCI Developmental Therapeutics Program. […] The stock solutions were prepared in dimethyl sulfoxide (DMSO, Sigma-Aldrich, St. Louis, MO, cat. D2650) at 800-fold the tested concentration and stored at -70 degrees C prior to their use. All drugs and investigational agents were tested over a range starting from a high concentration at or near the clinical Cmax and decreasing in half-log increments. If the clinical Cmax for an agent had not been determined, the highest concentration tested was 10 microM.\nCell Culture. All cells were maintained in an incubator at 37 degrees C and 5% CO2 with 95% humidity. The PDC lines were cultured according to standard operating procedures established by the NCI PDMR. All PDCs were thawed and cultured in Matrigel-coated flasks prepared with a working solution of 1X Ham's F-12 nutrient mix, without supplementation (Invitrogen, Waltham, MA, cat. 11765054), 100 U/mL penicillin-streptomycin (Invitrogen, cat. 15140122), and 2.5% Matrigel (Corning Inc., Corning, NY, cat. 354248) for the first three passages. The 362531-283-R-J2-PDC and 782815-120-R-J1-PDC lines were cultured in 6C/Colon 1B media, which includes advanced DMEM/F-12 (Thermo Fisher Scientific, cat. 12634028), 10 mM HEPES (Thermo Fisher Scientific, cat. 15630080), 1X GlutaMAX supplement (Thermo Fisher Scientific, cat. 35050061), 0.1 mg/mL primocin (InvivoGen, San Diego, CA, cat. ant-pm-2), 10% defined fetal bovine serum, heat inactivated (HyClone Laboratories Inc., Logan, UT, cat. SH30070.03HI), 50% L-WRN conditioned media (ATCC, cat. CRL-3276), 1.25 mM N-Acetyl-L-cysteine (Sigma-Aldrich, cat. A9165), 10 mM nicotinamide (Sigma-Aldrich, cat. N0636), 1X B-27 supplement (Thermo Fisher Scientific, cat. 17504044), 1X N-2 supplement (Thermo Fisher Scientific, cat. 17502048), 50 ng/mL human EGF (Thermo Fisher Scientific, cat. PHG0311), and 10 microM Y-27632 dihydrochloride (Tocris Bioscience, cat. 1254). The K12877-001-R-J1-PDC line was cultured in 6I media, which includes all 6C/Colon 1B media plus 10 ng/mL human FGF-10 (PeproTech, cat. 100-26), 1 ng/mL human FGF-2 (PeproTech, cat. 100-18B), 1 µM prostaglandin E2 (Tocris Bioscience, cat. 2296), […] hydrocortisone (Sigma-Aldrich, cat. H4001), and […] bovine insulin (Sigma-Aldrich, cat. I6634). The K86415-001-R-J1-PDC line was cultured in 6D media, which includes all 6C/Colon 1B media components minus the L-WRN conditioned media. The 485176-168-R4-J1-PDC was cultured in PANC media, which includes all 6C/Colon 1B media plus 100 ng/mL human FGF-10 (PeproTech, cat. 100-26), 500 nM SB-431542 (Selleckchem, cat. S1067), and 10 nM gastrin (Tocris Bioscience, cat. 3006). […]"}
{"smiles": "CC1(C)CCC(Nc2ncc(C(F)(F)F)c(-c3c[nH]c4c(P(C)(C)=O)c(C#N)ccc34)n2)CN1", "note": "(configuration not stated) + C#Cc1c(F)ccc2cc(O)cc(-c3ncc4c(N5CC6CCC(C5)N6)nc(OCC56CCCN5CC(F)C6)nc4c3F)c12", "values": [{"measurement": "IC50", "setting": "second compound 0.0316 µM", "result": 4.05, "unit": "nM"}, {"measurement": "IC50", "setting": "second compound 0.1 µM", "result": 5.69, "unit": "nM"}, {"measurement": "IC50", "setting": "second compound 0.316 µM", "result": 5.3, "unit": "nM"}, {"measurement": "IC50", "setting": "second compound 1 µM", "result": 5.82, "unit": "nM"}, {"measurement": "IC50", "setting": "second compound 3.16 µM", "result": 5.41, "unit": "nM"}, {"measurement": "IC50", "setting": "second compound 10 µM", "result": 2.06, "unit": "nM"}, {"measurement": "viability, T/C", "setting": "second compound 0.0316 µM, first compound 0.000949 µM", "result": 99.2, "unit": "%"}, {"measurement": "viability, T/C", "setting": "second compound 0.0316 µM, first compound 0.003 µM", "result": 56.7, "unit": "%"}, {"measurement": "viability, T/C", "setting": "second compound 0.0316 µM, first compound 0.00949 µM", "result": 30.9, "unit": "%"}, {"measurement": "viability, T/C", "setting": "second compound 0.0316 µM, first compound 0.03 µM", "result": 22, "unit": "%"}, {"measurement": "viability, T/C", "setting": "second compound 0.0316 µM, first compound 0.0949 µM", "result": 19.6, "unit": "%"}, {"measurement": "viability, T/C", "setting": "second compound 0.0316 µM, first compound 0.3 µM", "result": 17.6, "unit": "%"}, {"measurement": "viability, T/C", "setting": "second compound 0.1 µM, first compound 0.000949 µM", "result": 92.2, "unit": "%"}, {"measurement": "viability, T/C", "setting": "second compound 0.1 µM, first compound 0.003 µM", "result": 66.7, "unit": "%"}, {"measurement": "viability, T/C", "setting": "second compound 0.1 µM, first compound 0.00949 µM", "result": 35.4, "unit": "%"}, {"measurement": "viability, T/C", "setting": "second compound 0.1 µM, first compound 0.03 µM", "result": 26.7, "unit": "%"}, {"measurement": "viability, T/C", "setting": "second compound 0.1 µM, first compound 0.0949 µM", "result": 18.4, "unit": "%"}, {"measurement": "viability, T/C", "setting": "second compound 0.1 µM, first compound 0.3 µM", "result": 17.5, "unit": "%"}, {"measurement": "viability, T/C", "setting": "second compound 0.316 µM, first compound 0.000949 µM", "result": 91.3, "unit": "%"}, {"measurement": "viability, T/C", "setting": "second compound 0.316 µM, first compound 0.003 µM", "result": 63.7, "unit": "%"}, {"measurement": "viability, T/C", "setting": "second compound 0.316 µM, first compound 0.00949 µM", "result": 34.5, "unit": "%"}, {"measurement": "viability, T/C", "setting": "second compound 0.316 µM, first compound 0.03 µM", "result": 28.1, "unit": "%"}, {"measurement": "viability, T/C", "setting": "second compound 0.316 µM, first compound 0.0949 µM", "result": 20.4, "unit": "%"}, {"measurement": "viability, T/C", "setting": "second compound 0.316 µM, first compound 0.3 µM", "result": 18.2, "unit": "%"}, {"measurement": "viability, T/C", "setting": "second compound 1 µM, first compound 0.000949 µM", "result": 86.7, "unit": "%"}, {"measurement": "viability, T/C", "setting": "second compound 1 µM, first compound 0.003 µM", "result": 66.1, "unit": "%"}, {"measurement": "viability, T/C", "setting": "second compound 1 µM, first compound 0.00949 µM", "result": 37.7, "unit": "%"}, {"measurement": "viability, T/C", "setting": "second compound 1 µM, first compound 0.03 µM", "result": 24.4, "unit": "%"}, {"measurement": "viability, T/C", "setting": "second compound 1 µM, first compound 0.0949 µM", "result": 20.6, "unit": "%"}, {"measurement": "viability, T/C", "setting": "second compound 1 µM, first compound 0.3 µM", "result": 17.1, "unit": "%"}, {"measurement": "viability, T/C", "setting": "second compound 3.16 µM, first compound 0.000949 µM", "result": 87, "unit": "%"}, {"measurement": "viability, T/C", "setting": "second compound 3.16 µM, first compound 0.003 µM", "result": 64.4, "unit": "%"}, {"measurement": "viability, T/C", "setting": "second compound 3.16 µM, first compound 0.00949 µM", "result": 34.7, "unit": "%"}, {"measurement": "viability, T/C", "setting": "second compound 3.16 µM, first compound 0.03 µM", "result": 28.9, "unit": "%"}, {"measurement": "viability, T/C", "setting": "second compound 3.16 µM, first compound 0.0949 µM", "result": 19.7, "unit": "%"}, {"measurement": "viability, T/C", "setting": "second compound 3.16 µM, first compound 0.3 µM", "result": 19.1, "unit": "%"}, {"measurement": "viability, T/C", "setting": "second compound 10 µM, first compound 0.000949 µM", "result": 68.7, "unit": "%"}, {"measurement": "viability, T/C", "setting": "second compound 10 µM, first compound 0.003 µM", "result": 40.4, "unit": "%"}, {"measurement": "viability, T/C", "setting": "second compound 10 µM, first compound 0.00949 µM", "result": 25.2, "unit": "%"}, {"measurement": "viability, T/C", "setting": "second compound 10 µM, first compound 0.03 µM", "result": 24.3, "unit": "%"}, {"measurement": "viability, T/C", "setting": "second compound 10 µM, first compound 0.0949 µM", "result": 15.3, "unit": "%"}, {"measurement": "viability, T/C", "setting": "second compound 10 µM, first compound 0.3 µM", "result": 13.2, "unit": "%"}]}
